Assay results as given in patent US4704384A, “Aziridinyl quinone antitumor agents” (priority 1981, dated 1987).
Where “and” joins values, the source holds several entries; their conditions need not be identical. Equal values may be shown once. Entries after “also recorded” stand apart in the source; their conditions may differ. Read-outs that look alike come from different tables or passages of the source.

Legend:
[1] = reported; Europe / Japan; cited from earlier work
ependymoblastoma = format: in vivo, murine; settings: for survivors, EM: parentheses, per 6
Description: ^c Ic tumor implantation, ip QD15 treatment schedule.
(§1) A third IC tumor model, the ependymoblastoma system, was also studied. This system requires intracerebral implantation of a solid tumor fragment while the IC L1210 and IC P388 systems utilize IC inoculated ascites tumor fluid. All three use IP drug treatment however. […] Cures (survivors from the group of six mice on the last day of the experiment) are indicated.

[2] = Room temperature water solubility; format: physicochemical
Procedure: In the following examples, all melting points are uncorrected and were recorded on a Thomas-Hoover capillary melting point apparatus. Elemental analyses were performed by NIAMDD, NIH, Bethesda, Md. Fluoranil, ethyleneimine and 2-methylethyleneimine were obtained commercially. […] New compounds were identified by nmr and ir spectroscopy. In the tetraamino derivatives, the methylene protons of the aziridine rings usually occurred as a singlet at δ2.0-2.2 in CDCl3 or DMSO-d6. This absorption appeared at δ2.40 (CDCl3) for compound 11. Carbonyl absorption frequencies (nujol mull) occurred in the range 1620-1640 cm^-1 for the tetraamino compounds. Satisfactory elemental analyses (+0.4% of calculated values) are indicated by elemental symbols in Table VII. Room temperature water solubilities were determined by the incremental addition (pipet) of water to a weighed amount of compound with shaking. The solubility values in Table VII must be considered as approximate.

[3] = test system: lymphocytic leukemia P388; format: in vivo, murine; settings: for survivors, P388: Table XI, parentheses, per 6
B16 melanocarcinoma = format: in vivo, murine
lymphoid leukemia L1210 [4] = test system: lymphoid leukemia L1210
Description: ^b Ip tumor implantation, ip QD19 treatment schedule.
^e ILS = [(treated survival + control survival) × 100%] - 100%
The L1210, P388 and B16 test systems described in Table II utilize intraperitoneal (IP) tumor implantation and IP drug treatment while the Lewis lung system employs subcutaneous tumor implantation and IP treatment. All three CNS tumor models (Table III) use intracerebral (IC) tumor implantation and IP treatment.
Aqueous saline solution (0.9%) was used as the drug vehicle. Normally, five doses were employed per experiment with the top dose chosen to produce toxicity. The lower doses were 50% of each preceeding dose.
Consistent with NCI antitumor test protocols, intraperitoneal (IP) administration of the drug was employed with all five tumor systems investigated. Tumor implantation was IP in the systems designated IP leukemia L1210 and P388 as well as B16 melanoma. Intracerebral (IC) tumor implantation was utilized in the IC L1210 and ependymoblastoma tumor systems.

lymphoid leukemia L1210 [5] = format: in vivo, murine
Description: as §1

[6] = test system: lymphocytic leukemia P388; assay: Intracerebral (IC) P388 antitumor test; format: in vivo, murine; settings: for ILS: IP
Description: as §1

[7] = Approximation of human dose from mouse optimum dose; settings: approximated from optimum dose of 2 mg/kg in the mouse
Procedure: Using the assumptions and constants of Freireich et al., Cancer Chemother. Rep., 50, 219 (1966), and an optimum dose of 2 mg/kg in the mouse, an average human maximum tolerated dose of 10 mg per dose can be approximated. An active dose range of 2.5-10 mg per dose can be estimated.

Lewis lung carcinoma = Lewis lung carcinoma test (subcutaneous implant, IP drug); format: in vivo, murine
Description: ^c Subcutaneous tumor implantation, ip QD515 treatment schedule.

[8] = IP, QD1-9, 1.56 mg/kg/injection
[9] = IP, QD1-9, 3.12 mg/kg/injection
[10] = IP, QD1-9, 6.25 mg/kg/injection

COC(COC(N)=O)C1=C(N2CC2)C(=O)C(C)=C(N2CC2)C1=O (stereo not drawn) [Compound 30, carbazilquinone]
clinical activity [1]: Clinical activity has been reported

NC1=C(N2CC2)C(=O)C(N)=C(N2CC2)C1=O [Compound 33, 2,5-DIZAIRIDINYL-3,6-DIAMINO-1,4-BENZOQUINONE]
activity in ependymoblastoma (ependymoblastoma): among the most active materials | OD (ependymoblastoma; QD1-5, Table X): 0.2 mg/kg/injection | ILS (ependymoblastoma; QD1-5, at OD, Table X): 215% and 177% | animals alive per 6 (ependymoblastoma; QD1-5, day 60, at OD, Table X): 4 and 6 | survivors, EM (ependymoblastoma; Table XI): 6 | solubility [2]: so insoluble in any solvent | OD ([3]; QD1-9, Table IX): 0.2 mg/kg/injection | ILS ([3]; QD1-9, at OD, Table IX): 171% and 156% | animals alive per 6 ([3]; QD1-9, day 30, at OD, Table IX): 1 | survivors, P388 [3]: 1 | ILS (B16 melanocarcinoma; QD1-9, at OD, Table IX): 31% and 19% | OD (lymphoid leukemia L1210 [4]; Day 1 only (1 injection), Table VIII): 1.0 mg/kg/injection and 0.5 mg/kg/injection | ILS (lymphoid leukemia L1210 [4]; Q4D, at OD, Table VIII): 161% and 124% | animals alive per 6 (lymphoid leukemia L1210 [4]; Q4D, day 30, at OD, Table VIII): 3 and 2 | OD (lymphoid leukemia L1210 [4]; QD1-9 (9 injections), Table VIII): 0.4 mg/kg/injection and 0.3 mg/kg/injection | ILS (lymphoid leukemia L1210 [4]; QD1-9, at OD, Table VIII): 115% and 100% | survivors, IP L1210 (lymphoid leukemia L1210 [4]; Table XI, parentheses, per 6): 3 | activity in IC L1210 (lymphoid leukemia L1210 [5]): most active; also recorded: significant activity | OD (lymphoid leukemia L1210 [5]; QD1-9, Table X): 0.3 mg/kg/injection | ILS (lymphoid leukemia L1210 [5]; QD1-9, at OD, Table X): 60% and 59%

CCOC(=O)NC1=C(N2CC2)C(=O)C(NC(=O)OCC)=C(N2CC2)C1=O [Compound 9, 2,5-DIAZIRIDINYL-3,6-BIS(CARBOETHOXYAMINO)-1,4-BENZOQUINONE]
activity in IC P388 [6]: reproducible activity; also recorded: substantial | ILS ([6]; QD1-9, 0.39 mg/kg/injection): 7% and 2% | ILS ([6]; QD1-9, 0.78 mg/kg/injection): 27% and 25% | ILS ([6]; QD1-9, 1.56 mg/kg/injection): 37% and 51% | ILS ([6]; QD1-9, 3.12 mg/kg/injection): 39% and 31% | % ILS ([6]; Table IV summary, QD1-9, at OD): 51% and 39% | OD ([6]; Table IV, QD1-9): 1.5 mg/kg/injection and 3 mg/kg/injection | activity in ependymoblastoma (ependymoblastoma): curative in the EM system; also recorded: very active | optimum dose (ependymoblastoma): 1 to 2 mg/kg | Cures (animals alive per six) (ependymoblastoma; 1.00 mg/kg/injection, day 60 (expts 136/144)): 1/6 and 5/6 | Cures (animals alive per six) (ependymoblastoma; 1.00 mg/kg/injection, day 99 (expt 133)): 3/6 | Cures (animals alive per six) (ependymoblastoma; 2.00 mg/kg/injection, day 60 (expts 136/144)): 5/6 | Cures (animals alive per six) (ependymoblastoma; 2.00 mg/kg/injection, day 99 (expt 133)): 4/6 | Cures (animals alive per six) (ependymoblastoma; 4.00 mg/kg/injection, day 60): 4/6 | ILS (ependymoblastoma; QD1-5, 0.25 mg/kg/injection, expt 144): 30% | ILS (ependymoblastoma; QD1-5, 0.50 mg/kg/injection, expt 144): 62% | ILS (ependymoblastoma; QD1-5, 1.00 mg/kg/injection, expt 133 (day 99)): 348% | ILS (ependymoblastoma; QD1-5, 1.00 mg/kg/injection, expts 136/144 (day 60)): 126% and 171% | ILS (ependymoblastoma; QD1-5, 2.00 mg/kg/injection, expt 133 (day 99)): 349% | ILS (ependymoblastoma; QD1-5, 4.00 mg/kg/injection, expt 136 (day 60)): 276% | OD (ependymoblastoma; Table IV, QD1-5): 2 mg/kg/injection and 1 mg/kg/injection | survivors of 6 test mice (ependymoblastoma; Table IV, day 60): 5 and 4 and 6 | ILS (%) EM (ependymoblastoma; Table XI, outstanding activity): 277% | survivors, EM (ependymoblastoma; Table XI): 5 | T-C weight change (ependymoblastoma; day 5, 0.25 mg/kg/injection): -1.5 grams | T-C weight change (ependymoblastoma; day 5, 0.50 mg/kg/injection): -1.8 grams | T-C weight change (ependymoblastoma; day 5, 8.00 mg/kg/injection): -5.0 grams | activity in IP P388 [3]: very active | optimum dose (OD) [3]: 1 to 2 mg/kg | ILS ([3]; IP, QD1-9, 0.78 mg/kg/injection): 111% and 99% | OD ([3]; Table IV, QD1-9): 1.6 mg/kg/injection and 0.8 mg/kg/injection | survivors of 6 test mice ([3]; Table IV, day 30): 1 | survivors, P388 [3]: 1 | T-C weight change ([3]; day 5, QD1-9, 6.25 mg/kg/injection): -6.1 grams | OD (B16 melanocarcinoma): 3.12 mg/kg | activity in B16 melanoma (B16 melanocarcinoma): very active | ILS (B16 melanocarcinoma; [8]): 38% and 44% and 58% | ILS (B16 melanocarcinoma; [9]): 58% and 43% and 70% | % ILS (B16 melanocarcinoma; Table IV summary, QD1-9, at OD): 94% and 70% and 62% | OD (B16 melanocarcinoma; Table IV, QD1-9): 3 mg/kg/injection | activity (ILS) (B16 melanocarcinoma; as high as, at OD of 3.12 mg/kg): ≤ 70% | activity in IP L1210 (lymphoid leukemia L1210 [4]): greater L1210 activity on the QD1-9 schedule; also recorded: very active | ILS (lymphoid leukemia L1210 [4]; IP, QD1-9, 0.88 mg/kg/injection): 32% | ILS (lymphoid leukemia L1210 [4]; IP, QD1-9, 1.30 mg/kg/injection): 60% | ILS (lymphoid leukemia L1210 [4]; IP, QD1-9, 2.00 mg/kg/injection): 125% | ILS (lymphoid leukemia L1210 [4]; [10]): 27% | increase in life span (ILS) (lymphoid leukemia L1210 [4]; Q4D and QD1-9 schedules): > 25% | % ILS (lymphoid leukemia L1210 [4]; Q4D schedule): 54% | optimum dose (OD) (lymphoid leukemia L1210 [4]; QD1-9, mouse): 2 mg/kg and 2 to 3 mg/kg | ILS (lymphoid leukemia L1210 [4]; QD1-9, reproducible): > 100% | % ILS (lymphoid leukemia L1210 [4]; Table IV summary, QD1-9, at OD): 100% | OD (lymphoid leukemia L1210 [4]; Table IV, QD1-9): 3 mg/kg/injection and 2 mg/kg/injection and 4 mg/kg/injection | average human maximum tolerated dose [7]: ~10 mg per dose | OD (lymphoid leukemia L1210 [5]): 3.12 mg/kg | activity in IC L1210 (lymphoid leukemia L1210 [5]): reproducible activity; also recorded: substantial | ILS (lymphoid leukemia L1210 [5]; [8]): 51% and 46% | ILS (lymphoid leukemia L1210 [5]; [9]): 84% and 79% | ILS (lymphoid leukemia L1210 [5]; [10]): 10% and 3% | % ILS (lymphoid leukemia L1210 [5]; Table IV summary, QD1-9, at OD): 84% and 79% and 63% and 58% | OD (lymphoid leukemia L1210 [5]; Table IV, QD1-9): 3 mg/kg/injection and 5 mg/kg/injection | ILS (lymphoid leukemia L1210 [5]; at OD 3.12 mg/kg): 79% and 84% | activity in Lewis lung (Lewis lung carcinoma): Marginal activity | ILS (Lewis lung carcinoma; IP, 2.00 mg/kg/injection, 2 mg/kg): 38% and 34%
